Assay results: patent US6573300B2, “Hydroxyurea treatment for spinal muscular atrophy” (China Medical College Hospital, priority 2001, dated 2003)

Key:
human SMA patients = assay: Treatment of human SMA patients, oral; format: in vivo
SMA-like mice = assay: Treatment of types 2 and 3 SMA-like mice (hSMN2 Smn-/-) via drinking water; format: in vivo, mouse
Protocol: To generate hSMN2 Smn^−/− mice, hSMN2 Smn^+/− mice were crossed to Smn^+/− mice. Progeny lacking the murine SMN locus were identified by genotyping. The presence of the hSMN2 transgene was also confirmed.
The effect of hydroxyurea on the symptoms of SMA-like mice were investigated. Hydroxyurea was administered to ten SMA-like mice with type 2 symptoms and ten SMA-like mice with type 3 symptoms. These mice were identified at birth by genotype and phenotype. Hydroxyurea was administered to the SMA-like mice as 1 mg/ml to 2 mg/ml solution available ad libitum in their drinking water. The amount of hydroxyurea taken by SMA-like mice was estimated to be approximate 5-10 mg/day. The survival time of hydroxyurea-treated type 2 SMA-like mice was longer, about 4 to 5 days longer on average, than untreated mice.
The effect of hydroxyurea administration on the tail phenotype of SMA-like mice was also monitored. The tails of untreated types 2 and 3 SMA-like mice have decreased diameter of muscle fibers, atrophy of muscle bundles, group atrophy and subcutaneous edema (Hsieh-Li et al. (2000) supra).

[1] = absorbed from the gastrointestinal tract; cited from earlier work
[2] = system: exon 7-containing SMN protein; assay: Western-blot analysis (H2 and H7 antibodies) of SMN protein in SMA lymphoid cell lines; format: cell-based, human
From the text: Western-blot analysis. Rabbits were immunized with synthetic peptides containing either human SMN amino acids 279-288 from exon 7 or amino acids 72-84 from exon 2. Specific antibodies (H7 and H2 respectively) were purified from rabbit crude sera with an EAH-sepharose 4B column (Pharmacia) according to the manufacturer's instructions.
Protein samples, prepared from treated and untreated SMA lymphoid cells, were loaded on a 5% polyacrylamide stacking gel above a 12% separating gel, and the gel was run with a discontinuous buffer using Laemmli's method. After electrophoresis, proteins were transferred electrophoretically to polyvinyl difluoride membranes (Millipore Corp., Marlborough, Mass., USA). After the transfer, the membranes were blocked in TBST (50 mM Tris.HCl, pH 7.5, 150 mM NaCl, 0.05% Tween 20) containing 4% BSA (bovine serum albumin) for 2 hours at room temperature. Blots were incubated with a 1:800 dilution of anti-SMN exon 2 (H2) or anti-SMN exon 7 (H7) antibody in TBST for 2 hours at room temperature. […] The secondary antibody was detected with a 1.5% solution of 5-bromo-4-chloro-3-indoyl phosphate and 3% nitro blue tetrazolium in a developing buffer (100 mM NaCl, 5 mM MgCl2, 100 mM Tris.HCl, pH 9.5).

NC(=O)NO [hydroxyurea]
full-length SMN mRNA transcript in peripheral mononuclear cells (human SMA patients; SMA patients with SMN1 deletion, oral 15 to 25 mg/kg/day): elevated | walking gait (human SMA patients; one type II patient, improved to a type III phenotype): improved | clinical symptoms of all three patients (human SMA patients; oral 15 to 25 mg/kg/day): improved | muscle strength (human SMA patients; other type II patient): improved muscle strength | respirator dependence (human SMA patients; type I patient, on respirator before treatment): respirator free | tail phenotype (SMA-like mice; most of types 2 and 3 SMA-like mice, after treatment): nearly normal phenotype | frequency of chronic necrosis originating at the tip of the tail (SMA-like mice; treated SMA-like mice, 50% for untreated): 2% | exon 7-containing SMN protein levels in multiple tissues, including spinal cord motor neurons (SMA-like mice; western blot and immunohistochemical studies, treated SMA-like mice): elevated | time to enter the serum after ingestion [1]: ≤ 2 h | intact SMN protein in cytosolic and nuclear fractions ([2]; after 3 hours stimulation with 5 ng/ml to 500 μg/ml): increase | levels of exon 7-containing SMN protein ([2]; lymphoid cell lines from different types of SMA patients, varying amounts, vs untreated controls): increase
